Experiments:
[1] = test system: male Sprague Dawley rats treated with indomethacin; assay: Indomethacin-induced small intestinal ulcers (model of Crohn's disease), extent of ulceration; format: in vivo; details: prednisolone 10 mg/kg vs indomethacin alone
Experimental: FIG. 13 is a graph illustrating the effect of compound 1848 (SEQ ID NO:36) on small intestinal ulcers induced by indomethacin. Male Sprague Dawley rats were treated with vehicle (saline; group 1) or indomethacin (7 mg/kg s.c., once daily for two days; groups 2-7). Indomethacin was given alone (group 2) or in combination with prednisolone (10 mg/kg s.c.; group 3) or with 8, 40, or 200 nmol/kg compound 1848 (SEQ ID NO:36) s.c. […] (groups 4-6). Finally, one group of rats was treated with combination treatment of prednisolone (10 mg/kg s.c.) and compound 1848 (SEQ ID NO:36), 200 nmol/kg s.c. once daily (group 7). Treatment with compound 1848 (SEQ ID NO:36) was initiated 4 days prior to indomethacin and continued during the two days of indomethacin treatment. On day 3, rats were sacrificed and upon necropsy, the small intestine was gently flushed with 10% formalin and filled with formalin for a period of 5 minutes, after which the intestine was cut open along the antimesenteric margin and suspended on a polypropylene plate. Any remaining intestinal contents were carefully removed with a pair of tweezers. After fixation for another 24 hours at room temperature, the tissue was rinsed in Milli-Q water and surface-stained for 20 minutes with Alcian Green 3BX (Chroma) prepared as a 0.5% solution in 1% acetic acid (Bie & Berntsen). After removal of excess staining solution with Milli-Q water the tissue preparation was transferred to 70% alcohol and analyzed using a stereomicroscope at low magnification (×7). Starting at the pylorus, the small intestine was scanned and the shape (circular vs. linear) and size (circular ulcers: diameter, linear ulcers: length×width) of all ulcers was measured using a standard ruler (resolution: 0.5 mm). An ulcer was defined as an area, which lacked epithelial surface. In healing ulcers only the area that still lacked epithelial surface was regarded an ulcer even if the villus structure was still missing in a larger area. All analysis was performed in a blinded manner. […] Treatment with prednisolone caused a significant reduction in the extent of ulceration by app. 29%. […] Values are means±SEM. * P<0.05 vs. indomethacin (group 2). ^#P<0.05 vs. prednisolone (group 3).
Crohn's disease is a chronic disease that causes episodic inflammation of the small intestine. The effect of the GLP-2 analogue 1848 (SEQ ID NO:36) on small intestinal inflammation in an indomethacin-induced model of Crohn's disease was investigated. We have previously shown that administration of indomethacin (s.c, once daily for 2 days) induces small intestinal inflammation characterized by ulcerations and, increases in the pro-inflammatory cytokine, tumour necrosis factor alpha (TNF-α).
To determine the effect of ZP1848 (SEQ ID NO:36) on ulceration 1848 (SEQ ID NO:36) (8, 40 and 200 nmol/kg, s.c, twice daily (9:00 and 16:00)) was given for 4 days prior to the first dose of indomethacin and for an additional two days together with indomethacin. The corticosteroid, prednisolone (10 mg/kg, p.o) was used as a positive control since corticosteroids are commonly used in the treatment of active inflammation in Crohn's disease. In addition a group of animals were given both 1848 (SEQ ID NO:36) (200 nmol/kg) and prednisolone to determine the effects of a combination treatment. Twenty four hours after the last dose of 1848 (SEQ ID NO:36) had been given the animals were sacrificed the small intestine was gently flushed clean and fixed. To determine the extent of ulceration the intestine was cut open along the antimesenteric margin, suspended on a polypropylene plate and surface-stained with Alcian Green 3BX. Starting at the pylorus, the small intestine was scanned and the shape (circular vs. linear) and size (circular ulcers: diameter, linear ulcers: length×width) of all ulcers was measured using a standard ruler (resolution: 0.5 mm). An ulcer was defined as an area, which lacked epithelial surface. […]

TNF-α = assay: Small intestinal tissue content of TNF-α (ELISA) in rats with indomethacin-induced inflammation; format: in vivo; details: prednisolone 10 mg/kg alone
Experimental: Male Sprague Dawley rats were treated with vehicle (saline; group 1) or indomethacin (7 mg/kg s.c., once daily for two days; groups 2-7). […] On day 3, rats were sacrificed and upon necropsy, the small intestine was divided into three segments of equal length corresponding to 1) duodenum and proximal jejunum, 2) mid and distal jejunum and 3) ileum. Samples were immediately snap-frozen in liquid N2 and stored at −80° C. until analysis. Homogenization and extraction of cellular protein from small intestinal segments was performed according to the following procedure: Tissue segments were weighed and added a volume of 1.5 ml per gram tissue ice-cold (4° C.) extraction buffer (10 mM Tris-HCl (Sigma) and 1 mM EDTA (J. T. Baker), (pH 7.6) with 0.05% sodium azide (Fluka), 1% Tween-80 (Fluka), 2 mM phenylmethylsulfonyl fluoride (PMSF, Fluka) and 1 μg/ml of each of the protease inhibitors aprotinin, leupeptin and pepstatin A (Roche Diagnostics)). The tissue was cut into small bits with a pair of scissors and homogenized three times for 20 seconds (IKA UltraTurrax T25 homogenizer, Janke & Kunkel) at 9500 rpm with intermittent cooling on ice for 30 seconds. The homogenate was centrifuged at 20.000×g for 30 minutes at 4° C., the supernatant was collected and stored at −20° C. until analysis for TNF-α small intestinal protein extractions were analyzed for TNF-α using a commercially available ELISA kit according to the manufacturer's instructions (Rat Tumor Necrosis Factor-α UltraSensitive ELISA kit, Biosource International Inc.). The assay has a detection limit of 0.7 pg/ml. Protein extractions were analyzed for total protein content using a commercially available assay (DC protein assay, Bio-Rad Laboratories Ltd.). Small intestinal tissue levels of TNF-α were expressed relative to total protein. […] Values are means±SEM. * P<0.05 vs. indomethacin (group 2).
At sacrifice, however the small intestine was separated into three segments of equal length (proximal, mid and distal). TNF-α concentrations were measured in each of the individual segments using a commercially available ELISA kit.

[2] = in vivo; cited from earlier work
[3] = test system: colonic neoplasms in mice; details: cited from earlier work

Row | Molecule | Reduction in the extent of ulceration [1] [%] | Tissue levels of TNF-α, all 3 segments (TNF-α) | half life [2] | Growth of colonic neoplasms [3]
1 | C[C@]12C=CC(=O)C=C1CC[C@@H]1[C@@H]2[C@@H](O)C[C@@]2(C)[C@H]1CC[C@]2(O)C(=O)CO [prednisolone, reference compound] | ~29 | did not significantly affect tissue levels of TNF-α |  | 
2 | H-His-Ala-Asp-Gly-Ser-Phe-Ser-Asp-Glu-Met-Asn-Thr-Ile-Leu-Asp-Asn-Leu-Ala-Ala-Arg-Asp-Phe-Ile-Asn-Trp-Leu-Ile-Gln-Thr-Lys-Ile-Thr-Asp-OH [GLP-2] |  |  | about 7 minutes | accelerate the growth of colonic neoplasms in mice

From patent publication US9580487B2, “Method of treating stomach or bowel-related disorders by administering glucagon-like-peptide-2 (GLP-2) analogues” (Zealand Pharma A/S, priority 2005, dated 2017)
